Counter-ions that a name gives are not always drawn.
Columns and labels:
[1] = test system: β-catenin and PKG levels in SW480 cells; assay: Western blot of β-catenin and PKG in SW480; type: cell-based, human
Method: SW480 cells treated with exisulind as described previously are harvested from the microfuge tubes by rinsing once with ice-cold PBS. The cells are lysed by modified RIPA buffer for 15 minutes with agitation. The cell lysate is spun down in a cold room. The supernatants are transferred to fresh microcentrifuge tubes immediately after spinning. BioRad DC Protein Assay (Temecula, Calif.) is performed to determine the protein concentrations in samples. The samples are normalized for protein concentration, as described above.
50 μg of each sample is loaded to 10% SDS gel. SDS-PAGE is performed, and the proteins then are transferred to a nitrocellulose membrane. The blotted nitrocellulose membrane are blocked in freshly prepared TBST containing 5% nonfat dry milk for one hour at room temperature with constant agitation.
A goat-anti-PKG primary antibody is diluted to the recommended concentration/dilution in fresh TBST/5% nonfat dry milk. The nitrocellulose membrane is placed in the primary antibody solution and incubated one hour at room temperature with agitation. The nitrocellulose membrane is washed three times for ten minutes each with TBST. […]
This observation was made by culturing SW480 cells with either 200, 400 or 600 μM exisulind or vehicle (0.1% DMSO). […] Immuno-reactive protein can be detected by Western blot. […]

HT-29 cells = assay: Apoptosis and necrosis by morphology (acridine orange and ethidium bromide); type: cell-based, human; details: HT-29 treated for six days
Text: Apoptosis occurs naturally during normal tissue turnover and during embryonic development of organs and limbs. Apoptosis also is induced by cytotoxic T-lymphocytes and natural killer cells, by ionizing radiation and by certain chemotherapeutic drugs. Inappropriate regulation of apoptosis is thought to play an important role in many pathological conditions including cancer, AIDS, or Alzheimer's disease, etc. Compounds can be screened for induction of apoptosis using cultures of tumor cells maintained under conditions as described above. Treatment of cells with test compounds involves either pre- or post-confluent cultures and treatment for two to seven days at various concentrations. Apoptotic cells are measured in both the attached and “floating” compartments of the cultures. Both compartments are collected by removing the supernatant, trypsinizing the attached cells, and combining both preparations following a centrifugation wash step (10 minutes, 2000 rpm). The protocol for treating tumor cell cultures with sulindac and related compounds to obtain a significant amount of apoptosis has been described in the literature. (See, Piazza, G. A., et al., Cancer Research, 55:3110-16, 1995, which is incorporated herein by reference). The novel features include collecting both floating and attached cells, identification of the optimal treatment times and dose range for observing apoptosis, and identification of optimal cell culture conditions.
Following treatment with a compound, cultures can be assayed for apoptosis and necrosis by florescent microscopy following labeling with acridine orange and ethidium bromide. The method for measuring apoptotic cell number has previously been described by Duke & Cohen, “Morphological And Biochemical Assays Of Apoptosis,” Current Protocols In Immunology, Coligan et al., eds., 3.17.1-3.17.16 (1992, which is incorporated herein by reference).
For example, floating and attached cells can be collected by trypsinization and washed three times in PBS. Aliquots of cells can be centrifuged. The pellet can then be re-suspended in media and a dye mixture containing acridine orange and ethidium bromide prepared in PBS and mixed gently. The mixture can then be placed on a microscope slide and examined for morphological features of apoptosis.
Reference compounds and test compounds were analyzed for their novel PDE inhibitory activity in accordance with the protocols for the assay, supra. […] Apoptotic and necrotic cell death was determined previously (Duke and Cohen, In: Current Protocols in Immunology, 3.17.1-3.17.16, New York, John Wiley and Sons, 1992). […] All data were collected from the same experiment.
The apoptosis inducing activity for a series of phosphodiesterase inhibitors was determined. HT-29 cell were treated for 6 days with various inhibitors of phosphodiesterase. Apoptosis and necrosis were determined morphologically after acridine orange and ethidium bromide labeling in accordance with the assay described, supra.

HCT116, Colon = assay: Growth inhibition, SRB assay, HCT116; type: cell-based; details: Homo sapiens, HCT-116
Text: A compound's ability to inhibit tumor cell growth can be measured using the HT-29 human colon carcinoma cell line obtained from ATCC. HT-29 cells have previously been characterized as a relevant colon tumor cell culture model (Fogh, J., and Trempe, G. In: Human Tumor Cells in Vitro, J. Fogh (eds.), Plenum Press, New York, pp. 115-159, 1975). HT-29 cells are maintained in RPMI media supplemented with 5% fetal bovine calf serum (Gemini Bioproducts, Inc., Carlsbad, Calif.) and 2 mm glutamine, and 1% antibiotic-antimycotic in a humidified atmosphere of 95% air and 5% CO2 at 37° C. Briefly, HT-29 cells are plated at a density of 500 cells/well in 96 well microtiter plates and incubated for 24 hours at 37° C. prior to the addition of compound. […] After six days in culture, the cells are fixed by the addition of cold trichloroacetic acid to a final concentration of 10% and protein levels are measured using the sulforhodamine B (SRB) colorimetric protein stain assay as previously described by Skehan, P., Storeng, R., Scudiero, D., Monks, A., McMahon, J., Vistica, D., Warren, J. T., Bokesch, H., Kenney, S., and Boyd, M. R., “New Colorimetric Assay For Anticancer-Drug Screening,” J. Natl. Cancer Inst. […]
To show the effectiveness of this screening method on various forms of neoplasia, compounds were tested on numerous cell lines. […] The IC50 values were determined by the SRB assay. […]

[2] = Single, escalating dose human safety study; type: in vivo; details: single escalating oral doses

Row | SMILES | reduction of expression of β-catenin compared to control ([1]; SW480, 200, 400 or 600 μM, 48 hours, Western blot) [%] | PKG level by Western blot ([1]; SW480, 48 hours) | apoptotic and necrotic cell death (HT-29 cells) | IC50 (HCT116, Colon) [µM] | side effects in humans [2]
1 | CC1=C(CC(=O)O)c2cc(F)ccc2/C1=C\c1ccc(S(C)(=O)=O)cc1 [Exisulind, 5-fluoro-2-methyl-1-(p-methylsulfonylbenzylidene)-3-indenylacetic acid] | 50 | increase of PKG | capable of causing apoptotic cell death without inducing necrosis | 90 | 
2 | CC1=C(CC(=O)NCc2ccccc2)c2cc(F)ccc2/C1=C\c1ccncc1 [Compound I, (Z)-5-fluoro-2-methyl-(4-pyridylidene)-3-(N-benzyl)indenylacetamide hydrochloride] |  |  |  |  | no significant side effects at any dose
